Assay results reported in the supplement of paper PMC10307832.

What was measured:
Assay in all cases: relative viability (nuclei count vs DMSO), 5 days (fraction); higher = more cells survive
[1] = compound: Cc1ccc(NC(=O)c2ccc(CN3CCN(C)CC3)cc2)cc1Nc1nc(-c2cccnc2)cs1 [Masitinib] + Nc1ncn([C@H]2C[C@H](O)[C@@H](CO)O2)c(=O)n1 [Decitabine] (partner 2 µM)
Outline: (§1)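 Five library-drug doses in √10 steps were combined with a fixed anchor-drug dose, or a single drug was given alone, by pin tool to lung cancer cell lines in 1536-well plates the day after seeding. Nuclei were stained and counted after 5 days. Relative viability is the nuclei count in treated wells over that in vehicle wells, taken as the median of duplicate plates.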

[2] = compound: CC1=CC(=CC=C1)NC2=NC(=CS2)C3=CC=NC=C3 + CS(=O)(=O)CCNCc1ccc(-c2ccc3ncnc(Nc4ccc(OCc5cccc(F)c5)c(Cl)c4)c3c2)o1 [Lapatinib] (partner 2 µM)
Outline: as §1

[3] = compound: Cc1ccc(NC(=O)c2ccc(CN3CCN(C)CC3)cc2)cc1Nc1nc(-c2cccnc2)cs1 [Masitinib] + Cc1cc(Nc2cc(N3CCN(C)CC3)nc(Sc3ccc(NC(=O)C4CC4)cc3)n2)n[nH]1 [Tozasertib] (partner 0.1 µM)
Outline: as §1

[4] = compound: CC1=CC(=CC=C1)NC2=NC(=CS2)C3=CC=NC=C3 + O=C(c1cc(Cc2n[nH]c(=O)c3ccccc23)ccc1F)N1CCN(C(=O)C2CC2)CC1 [Olaparib] (partner 8 µM)
Outline: as §1

| Cell Line | relative viability ([1]; first compound 0.01 µM) | relative viability ([1]; first compound 0.03162 µM) | relative viability ([1]; first compound 0.1 µM) | relative viability ([1]; first compound 0.3162 µM) | relative viability ([1]; first compound 1 µM) | relative viability ([2]; first compound 0.08 µM) | relative viability ([2]; first compound 0.253 µM) | relative viability ([2]; first compound 0.8 µM) | relative viability ([2]; first compound 2.53 µM) | relative viability ([2]; first compound 8 µM) | relative viability ([3]; first compound 0.01 µM) | relative viability ([3]; first compound 0.03162 µM) | relative viability ([3]; first compound 0.1 µM) | relative viability ([3]; first compound 0.3162 µM) | relative viability ([3]; first compound 1 µM) | relative viability ([4]; first compound 0.08 µM) | relative viability ([4]; first compound 0.253 µM) | relative viability ([4]; first compound 0.8 µM) | relative viability ([4]; first compound 2.53 µM) | relative viability ([4]; first compound 8 µM) |
| --- | --- | --- | --- | --- | --- | --- | --- | --- | --- | --- | --- | --- | --- | --- | --- | --- | --- | --- | --- | --- |
| LOU-NH91 | 0.797 | 0.754 | 0.792 | 0.785 | 0.783 | 0.576 | 0.613 | 0.686 | 0.705 | 0.551 | 0.641 | 0.666 | 0.728 | 0.588 | 0.626 | 0.8 | 0.862 | 0.889 | 0.887 | 0.855 |
| LU99A | 0.921 | 0.916 | 0.901 | 0.997 | 0.986 | – | 1.02 | 1.01 | 0.903 | 0.868 | 0.289 | 0.221 | 0.282 | 0.269 | 0.257 | 0.233 | 0.262 | 0.275 | 0.27 | 0.237 |
| NCI-H441 | 0.214 | 0.23 | 0.262 | 0.233 | 0.244 | – | – | – | – | – | 0.67 | 0.571 | 0.637 | 0.7 | 0.473 | 0.564 | 0.52 | 0.571 | 0.688 | 0.521 |
| NCI-H522 | 0.707 | 0.897 | 0.8 | 0.696 | 0.646 | – | – | – | – | – | 0.589 | – | 0.631 | 0.615 | 0.582 | 0.708 | 0.579 | 0.746 | 0.544 | 0.704 |
| NCI-H1299 | – | – | – | – | – | 0.969 | 0.938 | 0.933 | 0.946 | 0.84 | – | – | – | – | – | 1.01 | 1 | 0.889 | 0.904 | 0.854 |
| NCI-H1563 | – | – | – | – | – | 0.912 | 0.64 | 0.912 | 0.761 | 0.634 | – | – | – | – | – | – | – | – | – | – |
| NCI-H1623 | – | – | – | – | – | – | – | – | – | – | 0.447 | 0.548 | 0.477 | 0.398 | 0.35 | – | – | – | – | – |
| NCI-H1648 | 0.614 | 0.451 | 0.568 | – | 0.453 | – | – | – | – | – | 0.477 | – | 0.452 | 0.397 | 0.431 | 0.545 | 0.412 | 0.656 | 0.477 | 0.392 |
| NCI-H1703 | – | – | – | – | – | 0.894 | 1.21 | 1.19 | 1.36 | 1.07 | – | – | – | – | – | 0.313 | 0.33 | 0.359 | 0.585 | 0.447 |
| NCI-H1792 | 0.621 | 0.443 | 0.51 | 0.438 | 0.472 | 0.885 | 0.659 | 0.772 | 0.722 | 0.866 | – | – | – | – | – | 0.312 | 0.307 | 0.248 | 0.255 | 0.32 |
| NCI-H2228 | – | – | – | – | – | 0.948 | 1.11 | 0.884 | 0.823 | 0.883 | 0.242 | 0.199 | 0.232 | 0.217 | 0.221 | 0.396 | 0.324 | 0.525 | 0.559 | 0.415 |
| NCI-H2342 | 0.724 | 0.648 | 0.683 | 0.79 | 0.833 | – | – | – | – | – | 0.464 | 0.51 | 0.523 | 0.514 | 0.469 | 0.438 | 0.468 | 0.398 | 0.476 | 0.395 |
| SW 900 | 0.349 | 0.438 | 0.452 | 0.519 | 0.442 | – | – | – | – | – | 0.58 | 0.608 | 0.542 | 0.442 | 0.455 | 0.751 | 0.667 | 0.693 | 0.433 | 0.543 |
